In this assay the target is T1, AR protein (Homo sapiens, UniProt P10275, T878A).
T1 construct: host or cells: LNCaP FGC
T1 sequence (P10275 1-920 T878A): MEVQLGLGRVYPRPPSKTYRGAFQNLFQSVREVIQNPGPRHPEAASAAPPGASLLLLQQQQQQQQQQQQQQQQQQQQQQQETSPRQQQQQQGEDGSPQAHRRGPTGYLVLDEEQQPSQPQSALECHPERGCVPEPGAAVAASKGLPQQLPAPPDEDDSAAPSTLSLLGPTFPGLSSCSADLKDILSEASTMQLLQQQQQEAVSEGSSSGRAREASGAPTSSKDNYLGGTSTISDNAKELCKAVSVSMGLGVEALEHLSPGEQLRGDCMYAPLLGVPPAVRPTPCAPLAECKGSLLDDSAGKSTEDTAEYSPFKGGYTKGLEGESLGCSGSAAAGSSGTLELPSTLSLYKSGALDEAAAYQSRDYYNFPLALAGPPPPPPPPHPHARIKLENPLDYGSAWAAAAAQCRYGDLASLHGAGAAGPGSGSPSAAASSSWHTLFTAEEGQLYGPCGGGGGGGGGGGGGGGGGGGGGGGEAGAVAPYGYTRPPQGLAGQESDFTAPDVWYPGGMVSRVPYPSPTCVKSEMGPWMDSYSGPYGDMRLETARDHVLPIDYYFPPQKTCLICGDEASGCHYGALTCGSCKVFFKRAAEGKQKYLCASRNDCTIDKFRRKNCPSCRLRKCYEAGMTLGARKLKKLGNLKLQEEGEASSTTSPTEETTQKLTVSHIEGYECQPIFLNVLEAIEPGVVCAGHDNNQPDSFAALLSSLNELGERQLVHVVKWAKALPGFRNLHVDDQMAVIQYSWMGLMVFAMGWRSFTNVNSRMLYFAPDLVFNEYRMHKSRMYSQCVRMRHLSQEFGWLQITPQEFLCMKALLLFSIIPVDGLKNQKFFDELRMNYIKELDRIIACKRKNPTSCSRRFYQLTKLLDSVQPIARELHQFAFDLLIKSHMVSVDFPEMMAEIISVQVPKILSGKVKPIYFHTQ
Put plainly: AR protein degradation in LNCaP cells (Western blot). It counts as cell-based. To be noted: 8 hours. The method, boiled down: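 AR degradation rate derived from Western blot band densitometry, referenced to GAPDH, using total lysates of LNCaP cells treated 8 h with compound versus solvent control. Detection used infrared dual-color imaging after SDS-PAGE and PVDF transfer.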
(In general: In western blotting, separated proteins are transferred to a membrane and probed.)

As for `CC1(C)[C@H](NC(=O)c2ccc(N3CCC(CN4CCC5(CCc6cc(C(=O)N[C@H]7CCC(=O)NC7=O)c(F)cc6O5)CC4)CC3)nc2)C(C)(C)[C@H]1Oc1ccc(C#N)c(Cl)c1` [A-P-50, 1'-((1-(5-(((1R,3R)-3-(3-chloro-4-cyanophenoxy)-2,2,4,4-tetramethylcyclobutyl)carbamoyl)pyridin-2-yl)piperidin-4-yl)methyl)-N-((S)-2,6-dioxopiperidin-3-yl)-7-fluorospiro[chroman-2,4'-piperidin]-6-carboxamide], the “Degradation of AR protein in LNCaP cells, 10 nM (%)” value (“Degradation … 10 nM (%)” below) is reported as 73% and the “Degradation of AR protein in LNCaP cells, 100 nM (%)” value (“Degradation … 100 nM (%)” below) is 91%.

`COc1cc(O[C@H]2C(C)(C)[C@H](NC(=O)c3ccc(N4CCC(F)(CN5CCC6(CCc7cc(C(=O)N[C@H]8CCC(=O)NC8=O)c(F)cc7O6)CC5)CC4)cc3)C2(C)C)ccc1C#N` [A-P-52, 1'-((1-(4-(((1r,3r)-3-(4-cyano-3-methoxyphenoxy)-2,2,4,4-tetramethylcyclobutyl)carbamoyl)phenyl)-4-fluoropiperidin-4-yl)methyl)-N-((S)-2,6-dioxopiperidin-3-yl)-7-fluorospiro[chroman-2,4'-piperidin]-6-carboxamide]: the “Degradation … 10 nM (%)” value is on record as -56% and the “Degradation … 100 nM (%)” value is reported as 23%.

Take `COc1cc(O[C@H]2C(C)(C)[C@H](NC(=O)c3ccc(N4CCC(CN5CCN6c7ccc(C(=O)N[C@H]8CCC(=O)NC8=O)cc7OC[C@@H]6C5)CC4)cc3)C2(C)C)ccc1C#N` [A-P-67]: the “Degradation … 10 nM (%)” value is on record as 55% and the “Degradation … 100 nM (%)” value worked out at 85%.

As for `C[C@H]1CC2(CCN(c3ccc(C(=O)N4CCC(CN5CCN6c7ccc(C(=O)N[C@H]8CCC(=O)NC8=O)cc7OC[C@H]6C5)CC4)cc3)CC2)CN1c1ccc(C#N)c(Cl)c1` [A-P-68], the “Degradation … 10 nM (%)” value was found to be 51% and the “Degradation … 100 nM (%)” value is given as 84%.

Turning to `C[C@H]1CC2(CCN(c3ccc(C(=O)N4CCC(CN5CCN6c7ccc(C(=O)N[C@H]8CCC(=O)NC8=O)cc7OC[C@@H]6C5)CC4)cc3)CC2)CN1c1ccc(C#N)c(Cl)c1` [A-P-69], the “Degradation … 10 nM (%)” value is on record as 52% and the “Degradation … 100 nM (%)” value is on record as 79%.

With `COc1cc(O[C@H]2C(C)(C)[C@H](NC(=O)c3ccc(N4CCC(CN5CCC6(CC5)COc5c6ccc(C(=O)N[C@H]6CCC(=O)NC6=O)c5F)CC4)cc3)C2(C)C)ccc1C#N` [A-P-83], the “Degradation … 10 nM (%)” value amounted to 41% and the “Degradation … 100 nM (%)” value was determined as 65%.

With `COc1cc(O[C@H]2C(C)(C)[C@H](NC(=O)c3ccc(N4CCC(F)(CN5CCC6(CC5)COc5c6ccc(C(=O)N[C@H]6CCC(=O)NC6=O)c5F)CC4)cc3)C2(C)C)ccc1C#N` [A-P-84], the “Degradation … 10 nM (%)” value is -6% and the “Degradation … 100 nM (%)” value was determined as 33%.

Turning to `COc1cc(O[C@H]2C(C)(C)[C@H](NC(=O)c3ccc(N4CCC(C)(CN5CCC6(CC5)COc5c6ccc(C(=O)N[C@H]6CCC(=O)NC6=O)c5F)CC4)cc3)C2(C)C)ccc1C#N` [A-P-85, 1'-((1-(4-(((1r,3r)-3-(4-cyano-3-methoxyphenoxy)-2,2,4,4-tetramethylcyclobutyl)carbamoyl)phenyl)-4-methylpiperidin-4-yl)methyl)-N-((S)-2,6-dioxopiperidin-3-yl)-7-fluoro-2H-spiro[benzofuran-3,4'-piperidin]-6-carboxamide], the “Degradation … 10 nM (%)” value worked out at 7% and the “Degradation … 100 nM (%)” value is recorded as 40%.

With `COc1cc(O[C@H]2C(C)(C)[C@H](NC(=O)c3ccc(N4CCC(CN5CCC6(CC5)COc5c6ccc(C(=O)N[C@H]6CCC(=O)NC6=O)c5F)(OC)CC4)cc3)C2(C)C)ccc1C#N` [A-P-86, 1'-((1-(4-(((1r,3r)-3-(4-cyano-3-methoxyphenoxy)-2,2,4,4-tetramethylcyclobutyl)carbamoyl)phenyl)-4-methoxypiperidin-4-yl)methyl)-N-((S)-2,6-dioxopiperidin-3-yl)-7-fluoro-2H-spiro[benzofuran-3,4'-piperidin]-6-carboxamide], the “Degradation … 10 nM (%)” value is reported as 37% and the “Degradation … 100 nM (%)” value stood at 39%.

As to `COc1cc(O[C@H]2C(C)(C)[C@H](NC(=O)c3ccc(N4CCC(CN5CCN6c7ccc(N[C@H]8CCC(=O)NC8=O)cc7OC[C@@H]6C5)CC4)cc3)C2(C)C)ccc1C#N` [A-P-100], the “Degradation … 10 nM (%)” value was 1% and the “Degradation … 100 nM (%)” value is on record as 48%.

For the molecule `COc1cc(O[C@H]2C(C)(C)[C@H](NC(=O)c3ccc(N4CCC(CN5CCN(c6ccc(C(=O)N[C@H]7CCC(=O)NC7=O)c(F)c6)CC5)CC4)cc3)C2(C)C)ccc1C#N` [ARV-766, reference compound], the “Degradation … 10 nM (%)” value is given as 49% and the “Degradation … 100 nM (%)” value is 78%.

On to “(R)-3-((1-(4-(((S)-2-(3-chloro-4-cyanophenyl)-3-methyl-2,8-diazaspiro[4.5]decan-8-yl)phenyl)piperidin-4-yl)methyl)-N-(((S)-2,6-dioxopiperidin-3-yl)-1,2,3,4,4a,5-hexahydrobenzo[b]pyrazi no[1,2-d][1,4]oxazine-8-carboxamide [A-P-58]”, for which the “Degradation … 10 nM (%)” value was 63% and the “Degradation … 100 nM (%)” value was determined as 87%.

Regarding “(S)-3-((1-(4-(((S)-2-(3-chloro-4-cyanophenyl)-3-methyl-2,8-diazaspiro[4.5]decan-8-yl)phenyl)piperidin-4-yl)methyl)-N-(((S)-2,6-dioxopiperidin-3-yl)-1,2,3,4,4a,5-hexahydrobenzo[b]pyrazi no[1,2-d][1,4]oxazine-8-carboxamide [A-P-57]”, the “Degradation … 10 nM (%)” value is recorded as 39% and the “Degradation … 100 nM (%)” value worked out at 76%.

As for “N-(1r,4r)-4-(3-chloro-4-cyanophenoxy)cyclohexy 1)-6-(4-(7-(2,6-dioxopiperidin-3-yl))-6-oxo-7,8-dihydro-2H,6H-dipyrido[2,3-e]isoindole-3,1'-cyclohexane-4',4‴-piperidin]-1"-yl)pyridazine-3-carboxamide [A-P-32]”, the “Degradation … 10 nM (%)” value was 12% and the “Degradation … 100 nM (%)” value was found to be 46%.

Source of the values: patent EP4722219A1 (Gan & Lee Pharmaceuticals Co., Ltd., priority 2023, dated 2024).
